Where two headings read alike, the source gives them in different places.
Experiments:
AHA1 mRNA = test: Knock-down of AHA1 mRNA by 5′-sense strand modified siRNA (Branched DNA Assay); assay type: cell-based; details: H1299 cells, siRNA 50 nM, DharmaFect-1 reverse transfection, 48 hours
Description: Assay of 5′-Sense Strand Modified siRNA for Knock-Down of AHA1 mRNA in Cellular Systems
Reference gene: GAPDH Cell line: H1299_Nut-One Plating density: 5,000 cells/well Plating format: 96-well Time from plating to treatment: 0 Control treatment: mock, untreated, control siRNA Transfection reagent: DharmaFectl
TF Reagent volume/well […] siRNA final concentration 50 nM Assay method: Day 1 manual/Day 2 Washer
Reverse transfection: H1299 cells were transfected with indicated siRNA at final concentration of 50 nM using DharmaFect-1 transfection reagent at 0.15 μl/well. Cells were then plated into 96-well plate at 5000 cells/well and incubated at 37° C. for 48 hours.
The efficacy of siRNA knock-down was measured with a Branched DNA Assay as reported by the vendor; the results of such knockdown are shown in FIG. 5. The relative cell viability was assessed by the absolute expression of GAPDH in the same well (FIG. 6).

Jurkat Cells/VCAM-1 = Jurkat Cells/VCAM-1 Adhesion Assay; assay type: cell-based; details: Table 4
sLFA-1/ICAM-1 = molecular target: T1, sLFA-1/ICAM-1 (Homo sapiens, UniProt P05107+P20701); test: sLFA-1/ICAM-1 ELISA (LFA1 Adhesion Assay); assay type: binding
T1 construct: 2.0 ug/ml solution of sLFA-1 or Mac-1 receptor
T1 sequence (P20701 26-1090 limits assumed): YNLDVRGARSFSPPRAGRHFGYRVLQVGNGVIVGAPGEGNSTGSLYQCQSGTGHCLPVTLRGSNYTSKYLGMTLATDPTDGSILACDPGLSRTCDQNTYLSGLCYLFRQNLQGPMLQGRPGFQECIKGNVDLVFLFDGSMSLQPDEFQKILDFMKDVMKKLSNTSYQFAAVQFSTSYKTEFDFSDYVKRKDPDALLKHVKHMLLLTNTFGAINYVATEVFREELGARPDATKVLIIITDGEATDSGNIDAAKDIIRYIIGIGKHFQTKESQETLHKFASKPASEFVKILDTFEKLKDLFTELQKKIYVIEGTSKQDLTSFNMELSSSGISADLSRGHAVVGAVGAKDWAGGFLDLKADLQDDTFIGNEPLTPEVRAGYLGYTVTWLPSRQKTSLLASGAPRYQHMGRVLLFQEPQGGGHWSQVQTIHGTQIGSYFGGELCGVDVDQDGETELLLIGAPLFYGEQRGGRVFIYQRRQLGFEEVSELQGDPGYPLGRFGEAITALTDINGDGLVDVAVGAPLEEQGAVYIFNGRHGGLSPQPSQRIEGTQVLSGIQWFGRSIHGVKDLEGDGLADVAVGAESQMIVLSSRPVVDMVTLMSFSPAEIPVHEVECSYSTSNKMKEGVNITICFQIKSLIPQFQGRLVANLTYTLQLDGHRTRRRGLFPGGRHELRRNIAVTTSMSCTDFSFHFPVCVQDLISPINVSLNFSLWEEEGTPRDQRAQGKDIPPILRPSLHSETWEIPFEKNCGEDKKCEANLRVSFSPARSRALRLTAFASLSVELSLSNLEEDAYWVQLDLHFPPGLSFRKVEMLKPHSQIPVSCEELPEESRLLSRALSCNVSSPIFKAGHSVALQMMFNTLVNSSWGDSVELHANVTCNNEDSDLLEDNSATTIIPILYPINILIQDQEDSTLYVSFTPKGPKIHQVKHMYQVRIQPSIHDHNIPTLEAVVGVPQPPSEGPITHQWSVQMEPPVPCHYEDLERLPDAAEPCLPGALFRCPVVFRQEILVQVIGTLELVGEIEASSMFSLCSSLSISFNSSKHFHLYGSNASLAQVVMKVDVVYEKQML
T1 sequence (P05107 23-700 limits assumed): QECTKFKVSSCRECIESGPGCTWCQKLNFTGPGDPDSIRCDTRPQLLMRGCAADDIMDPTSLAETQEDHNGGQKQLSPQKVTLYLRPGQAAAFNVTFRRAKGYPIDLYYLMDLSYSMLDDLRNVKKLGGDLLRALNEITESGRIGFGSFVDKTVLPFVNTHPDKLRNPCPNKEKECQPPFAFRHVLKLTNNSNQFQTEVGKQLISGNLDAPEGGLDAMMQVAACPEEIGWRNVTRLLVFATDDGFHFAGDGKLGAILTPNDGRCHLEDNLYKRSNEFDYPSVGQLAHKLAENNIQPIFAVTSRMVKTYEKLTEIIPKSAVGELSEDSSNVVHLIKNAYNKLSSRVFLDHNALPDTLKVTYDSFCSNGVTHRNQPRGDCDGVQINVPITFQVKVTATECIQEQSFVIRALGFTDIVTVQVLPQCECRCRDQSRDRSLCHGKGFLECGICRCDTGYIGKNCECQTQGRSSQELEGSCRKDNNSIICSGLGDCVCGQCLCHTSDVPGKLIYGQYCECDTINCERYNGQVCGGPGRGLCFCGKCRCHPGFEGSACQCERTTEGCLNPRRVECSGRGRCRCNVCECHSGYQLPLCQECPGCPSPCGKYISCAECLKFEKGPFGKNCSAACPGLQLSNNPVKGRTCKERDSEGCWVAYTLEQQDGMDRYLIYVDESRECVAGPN
Description: The following assay was conducted to assess effect of targeted molecules on the sLFA-1/ICAM-1 ELISA and Mac-1/ICAM-1 interactions.
Plates were coated with either 50 μl/well of 2.0 ug/ml solution of sLFA-1 or Mac-1 receptor in divalent cation buffer (1 mM MnCI2, 0.14M NaCl, 20 mM HEPES pH 7.2) at 4° C. overnight. Two hundred fifty μl of blocking buffer (1% BSA in divalent cation buffer) was added to each well 1 hour at 37° C. Plates were washed 3 times with wash buffer (TBS/0.05% Tween-20/1 mM MnCl2). The compound to be tested was solubilized in DMSO. […] Fifty μl of binding buffer (0.5% BSA in divalent cation buffer)/1% DMSO and 50 μl of the solutions to be tested were added to the appropriate wells and incubated for 1 hour. Fifty μl of 5dICAM-Fc (27 ng/ml) was added to the appropriate wells and 50 μl binding buffer was added to non-specific binding wells and incubated for 2 hours and washed. One hundred μl of 1:4000 HRP-goat anti-huIgG was added to each well and incubated for 1 hour and washed. One hundred μl of 1:1 TMB solution was added to each well and developed for 20 min at room temperature. Color development was stopped by adding 100 μl H3PO4 to each well. Absorbance was measured at 450 nm.

[1] = Table 4, read-out: LFA1 Adhesion Assay
[2] = control compounds, read-out: IC50

| Compound | AHA1 % KD (AHA1 mRNA) [%] | IC50 (Jurkat Cells/VCAM-1) [nM] | IC50 (sLFA-1/ICAM-1; [1]) [nM] | IC50 (sLFA-1/ICAM-1; Table 5, read-out: LFA1 Adhesion Assay (IC50 nM)) [nM] | IC50 (sLFA-1/ICAM-1; [2]) [nM] |
| --- | --- | --- | --- | --- | --- |
| Duplex-1: AHA1 siRNA duplex without targeting element: Sense-1 GGAuGAAGuGGAGAuuAGudTsdT, Antisense-1 ACuAAUCUCcACUUcAUCCdTsdT (sense GGAUGAAGUGGAGAUUAGUTT; antisense ACUAAUCUCCACUUCAUCCTT; lowercase nucleotides modified, meaning not given here, dTsdT 3' overhang) | 98 | > 200 |  |  |  |
| Cc1cc(C(=O)NCc2cccc(Cl)c2)cc(C)c1C(=O)N[C@@H](CNC(=O)c1cccs1)C(=O)O [compound 142] |  |  | 37 | 74 | ~37 |
| O=C(NCc1cccc(O)c1)c1cc(Cl)c(C(=O)N[C@@H](CNC(=O)c2cc(O)cc(O)c2)C(=O)O)c(Cl)c1 [compound 143] |  |  | 11 |  | ~11 |
